Source: ChEMBL document CHEMBL4680352, “Rational design and synthesis of 6-aryl-6H-benzo[c]chromenes as non-steroidal progesterone receptor antagonists for use against cancers” (Bioorg Med Chem, 2021)
Active and inactive are the calls of the source. No cut-off for these calls is given here.

What was measured:
PC-3 = assay: Antiproliferative activity against human PC-3 cells assessed as inhibition of cell viability after 72 hrs by CCK-8 assay; type: functional, cell-based; conditions: PC-3, 72 h
MCF7 [1] = assay: Induction of apoptosis in human MCF7 cells assessed as increase in cleaved caspase-3 level at 3 to 12 uM measured after 24 to 72 hrs by flow cytometry; type: functional, cell-based; conditions: dose 3-12 µM, time 24-72 hrs
MDA-MB-231 = assay: Antiproliferative activity against human MDA-MB-231 cells assessed as inhibition of cell viability after 72 hrs by CCK-8 assay; type: functional, cell-based; conditions: MDA-MB-231, 72 h
[2] = Selectivity index, ratio of IC50 for human MCF-10A cells to IC50 for human MCF-7 cells
[3] = target: T1, Progesterone receptor (Homo sapiens) (UniProt P06401); assay: Antagonist activity at PR in human T47D cells assessed as inhibition of progesterone-induced alkaline phosphatase activity by alkaline phosphatase assay; type: cell-based; conditions: filed as antagonist
T1 sequence (whole entry): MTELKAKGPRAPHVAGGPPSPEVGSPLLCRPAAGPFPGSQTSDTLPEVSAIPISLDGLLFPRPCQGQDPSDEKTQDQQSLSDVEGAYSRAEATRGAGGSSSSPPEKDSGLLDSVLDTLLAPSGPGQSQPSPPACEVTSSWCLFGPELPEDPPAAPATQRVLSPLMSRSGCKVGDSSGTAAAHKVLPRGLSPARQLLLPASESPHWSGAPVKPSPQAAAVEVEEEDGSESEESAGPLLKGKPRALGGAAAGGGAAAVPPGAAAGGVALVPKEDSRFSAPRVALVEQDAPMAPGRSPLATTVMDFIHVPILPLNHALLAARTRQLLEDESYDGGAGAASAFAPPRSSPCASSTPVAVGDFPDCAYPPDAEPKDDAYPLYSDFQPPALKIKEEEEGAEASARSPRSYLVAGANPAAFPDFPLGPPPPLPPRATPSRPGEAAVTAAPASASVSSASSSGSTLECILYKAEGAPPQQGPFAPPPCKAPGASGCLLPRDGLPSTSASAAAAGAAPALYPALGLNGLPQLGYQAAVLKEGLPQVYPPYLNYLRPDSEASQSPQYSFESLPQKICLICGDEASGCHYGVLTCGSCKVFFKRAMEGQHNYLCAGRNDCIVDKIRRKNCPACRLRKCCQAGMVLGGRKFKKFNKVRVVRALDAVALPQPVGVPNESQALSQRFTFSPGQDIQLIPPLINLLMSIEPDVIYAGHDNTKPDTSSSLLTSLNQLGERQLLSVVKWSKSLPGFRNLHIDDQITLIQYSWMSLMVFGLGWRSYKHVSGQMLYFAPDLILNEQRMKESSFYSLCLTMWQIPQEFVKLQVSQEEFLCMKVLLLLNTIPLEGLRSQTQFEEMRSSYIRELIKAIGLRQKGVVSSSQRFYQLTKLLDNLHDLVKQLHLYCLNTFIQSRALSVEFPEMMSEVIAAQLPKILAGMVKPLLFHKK

MCF7 [4] = assay: Induction of cell cycle arrest in human MCF7 cells assessed as increase in p21 protein expression after 48 hrs by Western blot analysis; type: functional, cell-based; conditions: dose 3-12 µM
MCF7 [5] = assay: Induction of apoptosis in human MCF7 cells at 6 uM measured after 24 hrs by Annexin V-FITC and propidium iodide staining based flow cytometry (Rvb =3.54%); type: functional
MCF7 [6] = assay: Induction of apoptosis in human MCF7 cells assessed as increase in ratio of Bax to Bcl2 level measured at 3 to 12 uM after 48 hrs by Western blot analysis; type: functional, cell-based; conditions: dose 3-12 µM
MCF7 [7] = assay: Induction of apoptosis in human MCF7 cells at 6 uM measured after 72 hrs by Annexin V-FITC and propidium iodide staining based flow cytometry (Rvb =4.62%); type: functional
MCF7 [8] = assay: Induction of apoptosis in human MCF7 cells assessed as increase in p53 phosphorylation at Ser15 residue at 3 to 12 uM measured after 48 hrs by Western blot analysis; type: functional, cell-based; conditions: dose 3-12 µM
MCF7 [9] = assay: Induction of apoptosis in human MCF7 cells at 12 uM measured after 48 hrs by Annexin V-FITC and propidium iodide staining based flow cytometry (Rvb =4.88%); type: functional
MCF7 [10] = assay: Antiproliferative activity against human MCF7 cells assessed as cell growth inhibition at 6 uM by CCK-8 assay; type: functional, cell-based; conditions: time 24-72 hrs, TDE = time-dependent effect
MCF-10A = assay: Cytotoxicity against human MCF-10A cells assessed as inhibition of cell viability after 72 hrs by CCK-8 assay; type: cell-based
MCF7 [11] = assay: Induction of apoptosis in human MCF7 cells at 3 uM measured after 48 hrs by Annexin V-FITC and propidium iodide staining based flow cytometry (reference value: 4.88%); type: functional
MCF7 [12] = assay: Induction of cell cycle arrest in human MCF7 cells assessed as decrease in cyclin D1 protein expression expression at 3 to 12 uM after 48 hrs by Western blot analysis; type: functional, cell-based; conditions: dose 3-12 µM
MCF7 [13] = assay: Induction of apoptosis in human MCF7 cells at 6 uM measured after 48 hrs by Annexin V-FITC and propidium iodide staining based flow cytometry (Rvb =4.88%); type: functional
MCF7 [14] = assay: Decrease in Bcl-2 expression in human MCF7 cells at 3 to 12 uM measured after 48 hrs by Western blot analysis; type: functional, cell-based; conditions: dose 3-12 µM
A549 = assay: Antiproliferative activity against human A549 cells assessed as inhibition of cell viability after 72 hrs by CCK-8 assay; type: functional, cell-based; conditions: A549, 72 h
MCF7 [15] = assay: Induction of apoptosis in human MCF7 cells assessed as increase in Bax expression at 3 to 12 uM measured after 48 hrs by Western blot analysis; type: functional, cell-based; conditions: dose 3-12 µM
MCF7 [16] = assay: Induction of cell cycle arrest in human MCF7 cells assessed as decrease in CDK4 protein expression at 3 to 12 uM after 48 hrs by Western blot analysis; type: functional, cell-based; conditions: dose 3-12 µM
BGC-823 = assay: Antiproliferative activity against human BGC-823 cells assessed as inhibition of cell viability after 72 hrs by CCK-8 assay; type: functional, cell-based; conditions: BGC-823, 72 h
MCF7 [17] = assay: Induction of apoptosis in human MCF7 cells assessed as increase in p53 expression measured at 3 to 12 uM after 48 hrs by Western blot analysis; type: functional, cell-based; conditions: dose 3-12 µM
MCF7 [18] = assay: Antiproliferative activity against human MCF7 cells assessed as inhibition of cell viability after 72 hrs by CCK-8 assay; type: functional, cell-based; conditions: MCF7, 72 h

IC50 (PC-3) [µM] | IC50 (MDA-MB-231) [µM] | inhibition [3] | IC50 (A549) [µM] | SMILES | Activity (MCF7 [1]) | Ratio IC50 [2] | Activity (MCF7 [4]) | Activity (MCF7 [5]) [%] | Activity (MCF7 [6]) | Activity (MCF7 [7]) [%] | Activity (MCF7 [8]) | Activity (MCF7 [9]) [%] | Activity (MCF7 [10]) | IC50 (MCF-10A) [µM] | Activity (MCF7 [11]) [%] | Activity (MCF7 [12]) | Activity (MCF7 [13]) [%] | inhibition (MCF7 [14]) | Activity (MCF7 [15]) | Activity (MCF7 [16]) | other results
7.5 | 9.15 | Active | 10 | COc1ccccc1C1Oc2ccccc2-c2cc(OCc3ccccc3)c(OCc3ccccc3)cc21 (stereo unspecified) | Active | 8.98 | Dose-dependent effect | 13.95 | Active | 36.93 | Active | 32.56 | Tde | 51.3 | 11.71 | Active | 22.97 | Active | Active | Active | IC50 (BGC-823): 7.82 µM; Activity (MCF7 [17]): Active; IC50 (MCF7 [18]): 5.71 µM
9.32 | 8.4 | Active | 13.2 | COc1cc2c(cc1OC)C(c1ccccc1OC)Oc1ccccc1-2 (stereo unspecified) | Active | 7.73 | Dose-dependent effect | 11.91 | Active | 34.38 | Active | 31.22 | Tde | 48.9 | 12.98 | Active | 18.87 | Active | Active | Active | IC50 (BGC-823): 9.1 µM; Activity (MCF7 [17]): Active; IC50 (MCF7 [18]): 6.32 µM
